Experiments:
CYP26B1 = molecular target: T1, CYP26B1 (Mus musculus, UniProt Q811W2); conditions: 0.1 mM, 4 h, cells in culture
T1 sequence (Q811W2 1-512): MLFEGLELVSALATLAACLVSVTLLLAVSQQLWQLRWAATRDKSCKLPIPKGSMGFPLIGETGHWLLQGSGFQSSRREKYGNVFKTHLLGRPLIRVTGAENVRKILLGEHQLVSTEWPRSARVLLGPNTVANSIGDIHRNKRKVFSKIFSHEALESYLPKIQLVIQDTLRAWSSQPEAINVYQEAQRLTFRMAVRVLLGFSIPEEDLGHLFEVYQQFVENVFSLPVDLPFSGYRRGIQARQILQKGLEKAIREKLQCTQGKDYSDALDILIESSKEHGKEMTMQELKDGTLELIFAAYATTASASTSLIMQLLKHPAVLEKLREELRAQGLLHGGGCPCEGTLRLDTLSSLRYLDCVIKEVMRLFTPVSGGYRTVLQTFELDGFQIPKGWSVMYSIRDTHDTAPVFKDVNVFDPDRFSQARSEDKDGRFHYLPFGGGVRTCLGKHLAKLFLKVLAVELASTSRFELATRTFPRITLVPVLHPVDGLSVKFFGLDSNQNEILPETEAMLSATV
Experimental: (§1) CYP26A1 Oxidation Assay. […] After 24 h, the transfected cells were split into 12-well plates to ensure an equal number of transfected cells in each assay well. […] The peaks were identified based on their spectra and coelution with standards. The cell lysate was examined for expression of CYP26A1, -B1, and -C1 by SDS-PAGE and immunoblotting of the V5 epitope-tagged recombinant protein using an anti-V5 epitope monoclonal antibody (Invitrogen).

CYP26A1 = molecular target: T2, CYP26A1 (Mus musculus, UniProt O55127); conditions: 0.1 mM, 4 h, cells in culture
T2 sequence (O55127 1-497): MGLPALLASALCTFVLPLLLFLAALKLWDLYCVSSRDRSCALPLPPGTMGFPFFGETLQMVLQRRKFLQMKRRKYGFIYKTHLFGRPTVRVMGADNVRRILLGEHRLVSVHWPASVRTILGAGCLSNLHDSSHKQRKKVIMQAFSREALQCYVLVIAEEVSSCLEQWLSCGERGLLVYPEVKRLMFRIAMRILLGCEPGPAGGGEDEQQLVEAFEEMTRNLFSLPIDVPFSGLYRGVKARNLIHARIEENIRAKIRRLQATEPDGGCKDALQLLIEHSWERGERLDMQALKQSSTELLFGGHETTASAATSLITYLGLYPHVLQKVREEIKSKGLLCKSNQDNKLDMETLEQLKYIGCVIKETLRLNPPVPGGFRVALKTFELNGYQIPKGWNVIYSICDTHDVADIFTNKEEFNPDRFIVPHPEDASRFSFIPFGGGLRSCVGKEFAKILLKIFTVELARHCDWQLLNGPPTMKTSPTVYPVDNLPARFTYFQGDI
Experimental: as §1

prRDH = molecular target: T3, prRDH (Homo sapiens, UniProt Q9NYR8); test: Oxidation by photoreceptor-specific RDH; assay type: biochemical; conditions: results not shown
T3 sequence (Q9NYR8 1-311): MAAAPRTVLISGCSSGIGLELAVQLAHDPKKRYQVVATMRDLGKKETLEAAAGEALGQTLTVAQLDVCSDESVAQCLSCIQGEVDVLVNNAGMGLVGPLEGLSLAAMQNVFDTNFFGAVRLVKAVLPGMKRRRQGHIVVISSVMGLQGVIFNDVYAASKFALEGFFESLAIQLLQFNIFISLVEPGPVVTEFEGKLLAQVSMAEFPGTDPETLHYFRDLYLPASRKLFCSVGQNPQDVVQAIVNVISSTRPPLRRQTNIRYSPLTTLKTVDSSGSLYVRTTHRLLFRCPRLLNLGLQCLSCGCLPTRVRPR

RDH12 = molecular target: T4, RDH12 (Homo sapiens, UniProt Q96NR8); test: Oxidation by RDH12; assay type: biochemical; conditions: results not shown
T4 sequence (Q96NR8 1-316): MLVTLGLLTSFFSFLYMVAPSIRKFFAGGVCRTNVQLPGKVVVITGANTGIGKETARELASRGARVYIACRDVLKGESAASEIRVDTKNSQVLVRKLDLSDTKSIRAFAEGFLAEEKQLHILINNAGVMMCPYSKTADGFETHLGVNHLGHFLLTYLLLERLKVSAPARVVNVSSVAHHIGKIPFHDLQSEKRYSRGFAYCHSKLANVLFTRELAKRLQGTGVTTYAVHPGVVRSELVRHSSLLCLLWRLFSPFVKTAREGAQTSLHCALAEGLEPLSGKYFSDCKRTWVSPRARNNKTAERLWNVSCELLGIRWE

mouse RetSat = molecular target: T5, mouse RetSat (Mus musculus, UniProt Q64FW2); test: RetSat saturase activity in Tet-induced HEKK-RetSat cells; assay type: cell-based; conditions: 40 μM substrate, overnight incubation
T5 construct: expressed in transfected cells
T5 sequence (Q64FW2 26-609): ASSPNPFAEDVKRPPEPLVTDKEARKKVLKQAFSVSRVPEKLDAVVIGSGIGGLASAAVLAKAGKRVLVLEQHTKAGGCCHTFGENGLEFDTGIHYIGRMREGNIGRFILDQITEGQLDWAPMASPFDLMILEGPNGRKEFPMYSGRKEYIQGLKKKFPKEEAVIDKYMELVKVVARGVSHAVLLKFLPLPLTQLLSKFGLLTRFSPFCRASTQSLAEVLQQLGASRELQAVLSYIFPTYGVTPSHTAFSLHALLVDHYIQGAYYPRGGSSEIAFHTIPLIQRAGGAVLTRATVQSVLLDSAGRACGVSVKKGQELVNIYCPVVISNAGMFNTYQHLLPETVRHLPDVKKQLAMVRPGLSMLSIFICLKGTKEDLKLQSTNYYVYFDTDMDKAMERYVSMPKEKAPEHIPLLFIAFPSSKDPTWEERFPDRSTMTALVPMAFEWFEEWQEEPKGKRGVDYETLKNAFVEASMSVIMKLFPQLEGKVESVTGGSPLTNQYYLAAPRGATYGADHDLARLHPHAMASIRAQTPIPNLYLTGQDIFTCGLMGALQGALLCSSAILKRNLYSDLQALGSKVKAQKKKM
Experimental: Enzyme assays of RetSat and CRTISO-catalyzed reactions. For enzyme assay, cells were seeded in six-well plates and expression of RetSat or CRTISO was induced with 1 μg/ml tetracycline 48 hr prior to analysis. Substrate preparation and addition were conducted under dim red light. Retinoid substrates were purified by HPLC as described above and dissolved in N,N-dimethylformamide (DMF) to a final concentration of 4 mM. Organic extract of tangerine tomatoes was dried under a stream of argon and resuspended in DMF. The substrates were diluted in 300 μl complete media (tetracycline 1 μg/ml) to a 40 μM final concentration, overlayed on cells, and incubated overnight in the dark at 37° C. in 5% CO2 and 100% humidity. Media and cells were collected by scraping, mixed with an equal volume of methanol. For retinol and dihydroretinol analysis the methanol:water mixture was extracted with two volumes of hexane, then the organic phase was dried, resuspended in hexane, and analyzed by normal-phase HPLC. […] For carotenoid analysis the organic phase was dried and resuspended in ethanol/tetrahydrofuran (9:1) and examined by reverse-phase HPLC System I. For retinoic acid analysis the 1:1 methanol:water mixture was acidified with 0.1 volumes of 12N HCl and extracted with 1 volume of chlorofom, dried and resuspended in ethanol and examined by reverse-phase HPLC System II.

| Structure (SMILES) | Oxidation to polar metabolites by CYP26B1 (CYP26B1) | Oxidation to polar metabolites by CYP26A1 (CYP26A1) | Oxidation to the aldehyde by prRDH (prRDH) | Oxidation to the aldehyde by RDH12 (RDH12) | Saturation by RetSat (substrate activity) (mouse RetSat) |
| --- | --- | --- | --- | --- | --- |
| CC1=C(/C=C/C(C)=C/C=C/C(C)CC(=O)O)C(C)(C)CCC1 (stereo not drawn) [all-trans-DRA, all-trans-13,14-dihydroretinoic acid] | efficiently carried out the oxidation | efficiently carried out the oxidation | – | – | – |
| CC1=C(/C=C/C(C)=C/C=C/C(C)CCO)C(C)(C)CCC1 (stereo not drawn) [all-trans-DROL, all-trans-13,14-dihydroretinol] | – | – | much less so | much less so | – |
| CC1=C(/C=C/C(C)=C/C=C/C(C)=C/C(=O)O)C(C)(C)CCC1 [all-trans-RA, all-trans-retinoic acid, reference compound] | efficiently carried out the oxidation | efficiently carried out the oxidation | – | – | not substrate |
| CC1=C(/C=C/C(C)=C/C=C/C(C)=C/CO)C(C)(C)CCC1 [all-trans-ROL, all-trans-retinol] | – | – | active | active | good substrate |

From patent publication US20080249042A1, “All-Trans-Retinol: All-Trans-13,14-Dihydroretinol Saturase and Methods of Its Use” (UNIVERSITY OF WASHINGTON, priority 2004, published 2008)
